{"source": "patent US10975116B2", "about": "“Methods of treating and preventing gastrointestinal motility disorders using aminosterols” (Enterin, Inc., priority 2013, dated 2021)", "key": {"[1]": {"assay": "Recovery of squalamine from stool after oral dose (thin layer chromatography)", "type": "in vivo, human", "details": "200 mg oral; all stool collected for 6 days; 60% acetonitrile/1% HCl extraction", "procedure": "200 mg of squalamine was administered to a human […] as in the first example. All stool was collected for 6 days following administration. Stool was then extracted with 60% acetonitrile and 1% HCl overnight. The supernatant was collected and the presence of squalamine assessed by thin layer chromatography following published procedures. Approximately 80% of the dose could be recovered from the stool."}, "[2]": {"system": "Irritable Bowel Syndrome (IBS)", "assay": "Oral squalamine in Irritable Bowel Syndrome, single subject", "type": "in vivo, human", "excerpt": "A person, in otherwise good health, was suffering from the “mixed” form of IBS since early childhood. The condition was characterized by a failure to feel “cleared” after the passage of a stool; occasional crampiness; abdominal bloating and a sense of “fullness.” The condition caused them to be “conscious of their bowels” throughout the day, and frequently interrupted their sleep. Attempts to relieve themself on the toilet would generally be ineffective, leaving them with the feeling of “still having to go.”\nOn day 1 the individual was administered a single 200 mg capsule of squalamine, orally, on an empty stomach with water. Within 2 hrs they experienced nausea, at 3 hrs they vomited, followed soon after by the passage of about 200 ml of clear discharge rectally. By 3.5 hrs the nausea had passed. They ate normally at lunch and dinner. […] Slept better than they had in many years. The first stool was passed on Day 4, was soft and passed easily, and then successively on Days 5, 6, 7, and 8. Beginning at Day 6, they began to experience the prior GI symptoms. By Day 8, their usual GI symptoms had returned.\nA second dosing trial was begun on Day 15, with a 50 mg capsule administered. […] Bowel movement was passed on Day 17. A 25 mg capsule was administered on Day 19. […] It was assumed that 50 mg dosed every other day was an optimum regimen. The individual remained on a dosing schedule of 50 mg orally every other day."}, "mesenteric nerve": {"system": "mesenteric nerve", "assay": "Mesenteric nerve multiunit recording after intraluminal squalamine in colon", "type": "in vivo, mouse", "excerpt": "Under appropriate and approved anesthesia, the distal colon of a mouse was externalized from the abdomen, along with the mesentary. The mesenteric blood vessels and lymphatics were carefully dissected from the mesenteric nerve, a structure that contains both the vagus (efferent and afferent) and spinal afferents. The nerve was cut, and the free end (which receives signals from the gut) was introduced into a capillary housing a silver electrode, along with the appropriate electronics required to detect and amplify weak electrical signals pulsing from the gut through the mesenteric nerve. […] Concentrations of 3, 10, 30 and 100 μM squalamine were evaluated. Responses to squalamine application were discernible at 30 μM but robust and reproducible responses were first evident at 100 μM. […] Paired experiments were comparisons of average discharge rates of a control recording period with a three-minute period during the peak response to squalamine. Statistical comparisons were made using paired t-tests. Squalamine increased the background firing rate from (mean±SD) 2.0±1.2 to 5.2±3.1 Hz (P=0.03). The latency to the onset of the firing increase was 4.4±4.1 min, while the latency to peak of the firing rate increase 12±7.5 min (FIG. 1)."}, "[3]": {"system": "colon migrating motor complex (MMC)", "assay": "Colonic motility and intraluminal pressure in excised colon segment", "design": "species or system mouse", "details": "squalamine added to the colonic lumen", "procedure": "A segment of colon was excised from a mouse, and one end was attached to a glass tube housing a pressure sensor. A video camera recorded the visible contractions of the segment. When squalamine was added to the colonic lumen, the frequency of contractions increased about 2 fold, representing coordinated peristaltic waves that move toward the rectum."}, "[4]": {"system": "intrinsic primary afferent neurons (IPANs) of the colon", "assay": "Patch-clamp of IPANs of the colon, epithelial lining peeled away", "type": "cell-based, mouse", "procedure": "In this Example the same procedure as that described in Example 12 was followed except that the epithelial lining of the colon was peeled away prior to application of squalamine to the lumen. Signals from individual IPANs were recorded. Concentrations of squalamine as low as 1 uM could now stimulate a robust response, similar quantitatively (and qualitatively) to concentrations 30-100 fold higher, when an intact epithelium was present."}, "endometrial cancer": {"system": "endometrial cancer", "assay": "Oral squalamine in endometrial cancer, single subject", "type": "in vivo, human", "procedure": "A person presented with abdominal discomfort and the presence of a palpable abdominal mass. […] Surgical removal of the uterus and ovaries was followed by chemotherapy. Subsequently, a large tumor adherent to the distal colon was discovered, along with additional nodes. A colonic resection was performed along with local radiation to the peritoneum.\nThe individual decided to stop all chemotherapy due to progression of the cancer and the adverse reactions previously experienced. The subject began oral squalamine in capsule form in August 2012. […] The dose of squalamine was raised to 100 mg/day in two divided doses. In October 2013, the tumor adjacent to the ureter was irradiated. […] The individual remains on squalamine 100 mg/day. They are in otherwise excellent health."}, "lymphoma": {"system": "lymphoma", "assay": "Oral squalamine in lymphoma, single subject", "type": "in vivo, human", "procedure": "A person with a 2 year history of progressive dementia and weakness presented with a massive cervical, axillary, and inguinal lymphadenopathy, along with malaise, somnolence and pain. […] The skin of their feet was a nonblanching bright pink hue up to the ankle with a scattered brownish purpuric rash. The individual was provided end of life care.\nAt the end of December 2013, the individual was begun on a daily dose of one 50 mg capsule of squalamine. […] Rash cleared within 3 days. On day 4 after squalamine initiation, a short course of dexamethsone was begun to treat the hypercalcemia, and stimulate appetite. 20 mg (4 days), 16 mg (2 days), 8 mg, 4 mg (2 days), then 2 mg daily. […] Mid-January 2014 weakness on the right, involving arm and leg was noted; a diagnosis of a mild stroke was made. […] A flat left submandibular node was felt of normal size and consistency. […] Squalamine treatment continues."}, "[5]": {"details": "single 200 mg capsule Day 1, empty stomach"}, "[6]": {"details": "100 μM intraluminal, 5 experiments"}, "[7]": {"details": "intraluminal, 3, 10, 30 and 100 μM evaluated"}}, "note": "“Also recorded” adds a separate entry of the source."}
{"substance": "squalamine", "values": [{"measurement": "dose recovered from the stool", "setting": "[1]", "result": "Approximately 80%"}, {"measurement": "response to 25 mg capsule", "setting": "[2]; 25 mg capsule on Day 19", "result": "By Day 21 the previous symptoms of IBS were returning"}, {"measurement": "response to 50 mg capsule", "setting": "[2]; 50 mg capsule on Day 15", "result": "Neither nausea nor a discharge was experienced; also recorded: Sense of bowel quiet was experienced"}, {"measurement": "IBS status on maintenance dosing", "setting": "[2]; 50 mg orally every other day, at 10 months", "result": "no longer experiences symptoms of IBS; also recorded: Bowel movements are of normal consistency; also recorded: Sleep is no longer interrupted by urgency to defecate"}, {"measurement": "nausea had passed, time after dosing", "setting": "[2]; [5]", "result": "≤ 3.5", "unit": "h"}, {"measurement": "volume of clear discharge passed rectally", "setting": "[2]; [5]", "result": "about 200 ml"}, {"measurement": "vomiting, time after dosing", "setting": "[2]; [5]", "result": 3, "unit": "h"}, {"measurement": "nausea, time of onset after dosing", "setting": "[2]; single 200 mg capsule Day 1, empty stomach, person with mixed IBS", "result": "≤ 2", "unit": "h"}, {"measurement": "first stool passed", "setting": "[2]; single 200 mg capsule on Day 1", "result": "Day 4"}, {"measurement": "period of bowel quiet without cramping or urgency", "setting": "[2]; single 200 mg capsule on Day 1", "result": "Day 1 through Day 5"}, {"measurement": "return of usual GI symptoms", "setting": "[2]; single 200 mg capsule on Day 1", "result": "Day 8"}, {"measurement": "latency to peak of the firing rate increase", "setting": "mesenteric nerve; [6]", "result": "12 ± 7.5", "unit": "min"}, {"measurement": "latency to the onset of the firing increase", "setting": "mesenteric nerve; [6]", "result": "4.4 ± 4.1", "unit": "min"}, {"measurement": "mesenteric nerve multiunit firing rate at peak response (mean±SD)", "setting": "mesenteric nerve; 100 μM intraluminal, 5 experiments, background 2.0±1.2 Hz, P=0.03", "result": "5.2±3.1", "unit": "Hz"}, {"measurement": "effect on mesenteric nerve firing frequency (FIGS. 1A-1C)", "setting": "mesenteric nerve; intraluminal squalamine", "result": "increases mesenteric nerve firing frequency"}, {"measurement": "concentration at which responses were discernible", "setting": "mesenteric nerve; [7]", "result": 30, "unit": "µM"}, {"measurement": "concentration at which robust and reproducible responses were first evident", "setting": "mesenteric nerve; [7]", "result": 100, "unit": "µM"}, {"measurement": "increase of the frequency of contractions", "setting": "[3]", "result": "about 2 fold"}, {"measurement": "peak pressure of MMC waves", "setting": "[3]; versus before application", "result": "did not differ; also recorded: no apparent effect"}, {"measurement": "lowest concentration stimulating a robust IPAN response", "setting": "[4]; epithelial lining peeled away", "result": 1, "unit": "µM"}, {"measurement": "fold higher concentrations needed for similar response when an intact epithelium was present", "setting": "[4]; intact versus stripped epithelium", "result": "30-100 fold"}, {"measurement": "PET/CT, metastases", "setting": "endometrial cancer; 100 mg/day in two divided doses, February 2013 as printed", "result": "no additional metasteses were observed"}, {"measurement": "tumor status", "setting": "endometrial cancer; July 2013, before dose raised to 100 mg/day", "result": "a small tumor appeared adjacent to the right ureter, and a second attached to the left descending colon"}, {"measurement": "PET/CT imaging", "setting": "endometrial cancer; oral capsules from August 2012, by March 2013", "result": "no evidence of malignancy was visible"}, {"measurement": "physical examination of nodes", "setting": "lymphoma; 50 mg daily from end of December 2013, end of February 2014", "result": "no palpable cervical nodes"}, {"measurement": "lymph node size", "setting": "lymphoma; 50 mg daily, by 1 week, dexamethsone from day 4", "result": "marked reduction in the size of the nodes"}, {"measurement": "clinical chemistry, polyclonal immunoglobulins", "setting": "lymphoma; 50 mg daily, repeat study", "result": "complete resolution of the polyclonal gammopathy"}, {"measurement": "rash cleared", "setting": "lymphoma; one 50 mg capsule daily", "result": "≤ 3", "unit": "days"}, {"measurement": "bowel function", "setting": "lymphoma; one 50 mg capsule daily, previously constipated", "result": "bowels began to move"}]}
